According to paper PMC10887108, “Novel Brain-Penetrant, Small-Molecule Tubulin Destabilizers for the Treatment of Glioblastoma” (Biomedicines, 2024):

Test system: U87 cells (microtubule network)
Experiment: Immunofluorescent staining of cellular β-tubulin
Format: cell-based, human
Conditions: U87, compounds at their IC50 concentrations, 24 h
Experimental: U87 cells (4000/well) were plated in black 96-well plates (Perkin Elmer 6055302; Waltham, MA, USA) and grown overnight. Cells were treated with compounds for 24 h, fixed with 4% paraformaldehyde for 20 min, and permeabilized with FoxP3 permeabilization buffer (eBioscience/Thermo Fisher Scientific 00-5523-00; Waltham, MA, USA) for 10 min at RT. Cells were incubated with an anti-TUBB3 (Tuj1) antibody (1:1000; […] Technologies 60052; Vancouver, BC, Canada) labeled with Hoechst 33342 dye (1:2000; Thermo Fisher Scientific H3570; Waltham, MA, USA). Images (40×) were taken with an automated high-content imaging microscope (Operetta, Perkin Elmer; Waltham, MA, USA).

SMILES: CO[C@H]1C[C@@H](C(=O)NC(=O)Nc2ccc(Oc3ccc(Cl)cn3)c(C)c2)C1 [RGN3067]
- effect on tubulin organization / MT network morphology: varying levels of disruption of tubulin organization
